The experiment deals with T1, Dipeptidyl peptidase-4 (DPP-4) (Homo sapiens, UniProt P27487).
T1 construct: gene DPP4
Kind of experiment: fluorescence DPP-4 inhibitor screening kit (Sigma Aldrich), kinetic mode. The experiment is classed as biochemical.

The results in this text go back to paper PMC9564220, “Dipeptidyl peptidase-4 inhibitory potentials of Glycyrrhiza uralensis and its bioactive compounds licochalcone A and licochalcone B: An in silico and in vitro study” (Frontiers in Molecular Biosciences, 2022).

Each structure is given as a SMILES string.

The term IC50 denotes the point on the concentration scale where inhibition reaches its midpoint. Higher therefore signals weaker potency.

T1 sequence (P27487 whole entry): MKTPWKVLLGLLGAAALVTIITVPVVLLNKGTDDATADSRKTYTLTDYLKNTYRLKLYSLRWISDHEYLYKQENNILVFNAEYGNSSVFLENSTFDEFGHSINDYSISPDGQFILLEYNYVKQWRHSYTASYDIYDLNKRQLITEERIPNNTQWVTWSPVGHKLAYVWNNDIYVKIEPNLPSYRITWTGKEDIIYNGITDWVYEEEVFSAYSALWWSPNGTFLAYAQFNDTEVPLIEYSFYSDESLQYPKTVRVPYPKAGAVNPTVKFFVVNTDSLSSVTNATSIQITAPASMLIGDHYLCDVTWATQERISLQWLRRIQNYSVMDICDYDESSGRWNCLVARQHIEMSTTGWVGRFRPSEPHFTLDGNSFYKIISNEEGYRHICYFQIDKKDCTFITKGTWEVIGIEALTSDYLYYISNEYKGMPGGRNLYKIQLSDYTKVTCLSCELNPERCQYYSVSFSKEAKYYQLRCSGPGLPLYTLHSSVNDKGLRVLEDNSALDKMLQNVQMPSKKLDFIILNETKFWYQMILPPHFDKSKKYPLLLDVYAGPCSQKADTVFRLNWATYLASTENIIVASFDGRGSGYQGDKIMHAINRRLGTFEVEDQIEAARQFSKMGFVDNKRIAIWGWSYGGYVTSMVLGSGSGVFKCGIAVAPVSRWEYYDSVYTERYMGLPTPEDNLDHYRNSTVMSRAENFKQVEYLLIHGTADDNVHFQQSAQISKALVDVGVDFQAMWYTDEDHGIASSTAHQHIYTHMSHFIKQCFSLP

On to `COc1c(/C=C/C(=O)c2ccc(O)cc2)ccc(O)c1O` [LicB, licochalcone B], for which the 50% inhibitory concentration (IC50) was about 798 µM. Compound `C=CC(C)(C)c1cc(/C=C/C(=O)c2ccc(O)cc2)c(OC)cc1O` [LicA, licochalcone A] gave an IC50 of about 348 µM.
